The record followed here is ChEMBL document CHEMBL1201862, “PubChem BioAssay data set” (2004).

Holding throughout (test): NCI tumour cell line growth inhibition, 48 h
Assay [1] deals with SNB-75.
The subject of assay [2] is SF-539.
Assay [3] deals with DU-145.
In assay [4] the test system is SK-MEL-2.
The test system of assay [5] is A549.
Assay [6] relates to HT-29.
Assay [7] relates to UACC-62.
The subject of assay [8] is A498.
For assay [9], the system named is OVCAR-3.
The subject of assay [10] is SNB-19.
Assay [11] concerns ACHN.
The subject of assay [12] is NCI-H522.
The subject of assay [13] is NCI-H460.
Assay [14] has as its system KM12.
Assay [15] has as its system SF-295.
Assay [16] concerns Malme-3M.
Assay [17] relates to OVCAR-5.
Assay [18] concerns CCRF-CEM.
The subject of assay [19] is Hs-578T.

Each structure is given as a SMILES string.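 Grown in 96-well plates, cells were treated for 48 hours with each compound at five concentrations. Insufficient inhibition: endpoint recorded as highest concentration tested. GI50: concentration for 50% inhibition of growth.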 Activity calls are given as the source filed them. Rule as the data show it: active = GI50 up to about 1.1 µM and inactive = higher.

On to `O=C(O)c1ccc(C(=O)c2ccccc2)c(C(=O)O)c1`, for which the GI50 in assay [1], in [2], in assay [3], in [4], in assay [5] and in assay [6] was > 100 µM (inactive) in each case. Also, the GI50 in assay [7], in assay [8], in assay [9], in [10], in assay [11] and in assay [12] was > 100 µM (inactive) throughout. The GI50 in assay [13], in [14], in assay [15], in [16], in [17] and in assay [18] was > 100 µM (inactive) throughout. The GI50 in [19] was > 100 µM (inactive).

Consider `C=CCN(c1cc(O)c2c(c(C)cn2S(=O)(=O)c2ccccc2)c1[N+](=O)[O-])S(C)(=O)=O`, for which the GI50 in [1] was > 100 µM (inactive); in assay [2], > 100 µM (inactive); in [3], > 100 µM (inactive); in [4], > 100 µM (inactive); in assay [5], 56.5 µM (inactive); in assay [6] it was > 100 µM (inactive). The GI50 in assay [7] is > 10 µM (inactive); in assay [8], 74.1 µM (inactive); in assay [9] it was 65.5 µM (inactive); in assay [10] it was > 100 µM (inactive); in assay [11], 81.1 µM (inactive); in assay [12], 65.9 µM (inactive). For the same molecule, the GI50 was 63.8 µM (inactive) in assay [13]; > 100 µM (inactive) in [14]; 48.5 µM (inactive) in assay [15]; > 100 µM (inactive) in [16]; > 100 µM (inactive) in [17]; > 100 µM (inactive) in [18]. Besides, the GI50 in [19] was > 100 µM (inactive).

Consider `NC(=O)C1=NNc2ccccc2C(=O)N1c1ccccc1`, for which the GI50 in [1] was 14.5 µM (inactive); in assay [2], > 100 µM (inactive); in [3] it was > 100 µM (inactive); in [4] it was > 100 µM (inactive); in assay [5], > 100 µM (inactive); in assay [6] it was > 100 µM (inactive). Moreover, the GI50 in [7], in assay [8], in [9], in assay [10], in assay [11] and in [12] was > 100 µM (inactive) each time. The GI50 in assay [13], in assay [14], in assay [15], in assay [16], in assay [17] and in [18] was > 100 µM (inactive) in each case. Also, the GI50 in assay [19] was > 100 µM (inactive).

As for `Nc1cc2c3c(cccc3c1)NC2=O`, the GI50 is 14.6 µM (inactive) in [1]; 80.7 µM (inactive) in assay [2]; > 100 µM (inactive) in assay [3]; > 100 µM (inactive) in assay [4]; 69.2 µM (inactive) in assay [5]; > 100 µM (inactive) in [6]. The GI50 in assay [7] was 63 µM (inactive); in assay [8], > 100 µM (inactive); in assay [9], > 100 µM (inactive); in assay [10] it was 84.9 µM (inactive); in assay [11] it was 25.1 µM (inactive); in assay [12], 3.64 µM (inactive). In addition, the GI50 in [13] is 8.39 µM (inactive); in [14] it was > 100 µM (inactive); in assay [15], > 100 µM (inactive); in assay [16], > 100 µM (inactive); in assay [17], > 100 µM (inactive); in [18], 8.05 µM (inactive). For the same molecule, the GI50 in assay [19] is > 100 µM (inactive).

On to `C/C(=N\NC(=S)Nc1ccc([N+](=O)[O-])cc1)c1nc2cccnc2[nH]1`, for which the GI50 in assay [1] is 1.38 µM (inactive); in assay [2], 0.288 µM (active); in assay [3] it was 1.21 µM (inactive); in assay [4], 1.31 µM (inactive); in [5] it was 0.783 µM (active); in assay [6], 0.615 µM (active). The GI50 in assay [7] is 0.447 µM (active); in assay [8], 2.67 µM (inactive); in assay [9], 0.299 µM (active); in assay [10] it was 0.824 µM (active); in [11] it was 0.378 µM (active); in assay [12], 1.06 µM (active). Besides, the GI50 in assay [13] is 0.379 µM (active); in assay [14] it was 0.873 µM (active); in assay [15] it was 0.352 µM (active); in assay [16], 1.36 µM (inactive); in assay [17], 1.08 µM (active); in assay [18] it was 0.381 µM (active). The GI50 in [19] is 1.27 µM (inactive).

In the case of `CC(C)=C[C@@H]1O[C@H](O)[C@@H]([C@H]2CC[C@@]3(C)[C@@H]4CC[C@H]5C(C)(C)C(=O)CC[C@@]56C[C@@]46CC[C@]23C)[C@@H]1O`, the GI50 was 17.7 µM (inactive) in assay [1]; 12.4 µM (inactive) in assay [2]; 16.1 µM (inactive) in assay [3]; 20 µM (inactive) in [4]; 14.4 µM (inactive) in assay [5]; 11.8 µM (inactive) in assay [6]. The GI50 in assay [7] was 18.1 µM (inactive); in [8] it was 18.3 µM (inactive); in assay [9], 13.2 µM (inactive); in assay [10], 20.9 µM (inactive); in assay [11] it was 18.1 µM (inactive); in assay [12], 13.1 µM (inactive). Also, the GI50 in [13] was 19.5 µM (inactive); in [14] it was 18.1 µM (inactive); in assay [15] it was 16.1 µM (inactive); in assay [16], 16.8 µM (inactive); in assay [17], 23.1 µM (inactive); in [18], 9.93 µM (inactive). In addition, the GI50 in assay [19] was 21.2 µM (inactive).

For the molecule `CCOC(=O)c1nc2c3c(ncn2n1)Oc1c(c(-c2ccccc2)nn1-c1ccccc1)C3c1ccc(Cl)cc1` (stereo not drawn), the GI50 in [1], in assay [2], in [3], in assay [4], in assay [5] and in assay [6] was > 100 µM (inactive) throughout. Besides, the GI50 in assay [7], in assay [8], in assay [9], in assay [10], in assay [11] and in [12] was > 100 µM (inactive) each time. The GI50 is > 100 µM (inactive) in assay [13]; 15.1 µM (inactive) in [14]; > 100 µM (inactive) in [15]; > 100 µM (inactive) in [16]; > 100 µM (inactive) in assay [17]; > 100 µM (inactive) in [18]. Besides, in assay [19], the GI50 is > 100 µM (inactive).
